From PubChem BioAssay AID1963439 (Molecular Pharmacology Branch, DTP, NCI, 2024)

Tested on: NCI-H196 complex spheroids with HUVEC/MSC, growth % T/C
Test: Anticancer human tumor NCI-H196 cell line growth inhibition [Asc];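 further: spheroids exposed to compound for 7 days before measurement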;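 on viability, T/C: 100% = DMSO vehicle control wells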
Settings: for IC50: curve of first compound; for viability, T/C: stronger effect = lower value
Method: Multicellular complex tumor spheroid response to apoptosis pathway targeting inhibitors Alrizomadlin, Pelcitoclax, and Dasminapant in combination with a variety of drugs and investigational agents in selected tumor cell lines
The MDM2 inhibitor alrizomadlin, the Bcl-2/Bcl-xL inhibitor pelcitoclax, and the IAPs inhibitor dasminapant were evaluated both individually and in combination with standard of care and investigational anticancer small molecules within a complex spheroid model of solid tumors. . Complex spheroids include a stromal component modeled by human endothelial cells (HUVEC) and fibroblasts modeled by human mesenchymal stem cells (MSCs). The concentration ranges selected for each drug and investigational agent were based upon clinically achievable concentrations if the clinical Cmax of the agent was known.
Compounds. The drugs and investigational agents: alrizomadlin (APG-115; NSC831270), pelcitoclax (APG-1252; NSC835773), dasminapant (APG-1387;NSC834197), TAK-243 (NSC785004), copanlisib (NSC809693), olaparib (NSC753686), talazoparib (NSC767125), cobimetinib (NSC 768068), eltanexor (KPT-8602, NSC 794443), abemaciclib (NSC 768073), sotorasib (NSC818433), adagrasib (NSC 831453), MRTX-1133 (NSC 836407), Iadademestat (ORY1001, NSC 806812), and RMC-4630 (NSC839698), were obtained from the NCI Developmental Therapeutics Program Chemical Repository. The FDA-approved anticancer drug set is available from the Developmental Therapeutics Program at https://dtp.cancer.gov/organization/dscb/obtaining/available plates.htm. […] The stock solutions were prepared in dimethyl sulfoxide (DMSO, Sigma-Aldrich, St. Louis, MO, cat. D2650) at 800-fold the tested concentration and stored at -70 degrees C prior to their use. All drugs and investigational agents were tested over a range starting from a high concentration at or near the clinical Cmax and decreasing in half-log increments. If the clinical Cmax for an agent had not been determined, the highest concentration tested was 10 microM.
The patient-derived cancer (PDC) cell lines include five colon adenocarcinomas: 186277-243-T-J2-PDC, 616215-338-R-J1-PDC, 439559-082-T-J2-PDC, 463943-066-T-J2-PDC, and 519858-162-T-J1-PDC; three pancreatic carcinomas: 323965-272-R-J2-PDC, 521955-158-R6-J3-PDC, and 521955-158-R2-J5-PDC; two uterine sarcomas: 327498-152-R-J2-PDC and 993429-296-R-J1-PDC; two rhabdomyosarcomas: 755483-174-R-J1-PDC and 772245-204-R-J1-PDC; two soft tissue sarcomas: 126254-015-R-J1-PDC and 494315-158-R-J1-PDC; two malignant fibrous histiocytomas: 317291-083-R-J1-PDC and 596521-263-R-J1-PDC; two breast carcinomas: 171881-019-R-J1-PDC and 885512-296-R-J2-PDC; and one ovarian carcinoma: 6556581-035-R-J-PDC were obtained from the NCI PDMR, (https://pdmr.cancer.gov). The established cell lines HSSY-2 synovial sarcoma (RRID:CVCL 8719), SYO-1 synovial sarcoma (RRID:CVCL_7146), MPNST malignant peripheral neural sheath tumor were obtained from the Sloan Kettering Institute. The following established cell lines were purchased from the American Type Culture Collection (ATCC, Manassas, VA), Sor the received from the NCI repository:, PANC-1 pancreatic carcinoma (CRL-1469, RRID:CVCL_0480), OVCAR-5 ovarian carcinoma (RRID:CVCL_1628), OVCAR-8 ovarian carcinoma (RRID:CVCL_1629), , MCF-7 breast carcinoma (CRL-12584, RRID:CVCL_0031), MDA-MB-231 breast carcinoma (CRL-12532, RRID:CVCL_0062), NCI-H1876 small cell lung carcinoma (CRL-5902, RRID:CVCL_1503), NCI-H510A small cell lung carcinoma (HTB-184, RRID:CVCL_1565), NCI-H1417 (CRL-5869, RRID:CVCL_1469), and NCI-H196 small cell lung carcinoma (CRL-5823, RRID:CVCL_1509). Dr. Peter Houghton (Greehey Children's Cancer Research Institute, University of Texas Health Science Center, San Antonio, TX) provided Rh-18 rhabdomyosarcoma (RRID:CVCL_1659). Pooled donor human umbilical vein endothelial cells (HUVEC, Lonza, cat. CC-2519) and human mesenchymal stem cells (hMSC, Lonza, cat. PT-2501) were purchased from Lonza (Walkersville, MD).
Cell Culture. […]

[1] = second compound 0.03 µM, first compound 0.00316 µM
[2] = second compound 0.03 µM, first compound 0.01 µM
[3] = second compound 0.03 µM, first compound 0.0316 µM
[4] = second compound 0.03 µM, first compound 0.1 µM
[5] = second compound 0.03 µM, first compound 0.316 µM
[6] = second compound 0.03 µM, first compound 1 µM
[7] = second compound 0.0949 µM, first compound 0.00316 µM
[8] = second compound 0.0949 µM, first compound 0.01 µM
[9] = second compound 0.0949 µM, first compound 0.0316 µM
[10] = second compound 0.0949 µM, first compound 0.1 µM
[11] = second compound 0.0949 µM, first compound 0.316 µM
[12] = second compound 0.0949 µM, first compound 1 µM
[13] = second compound 0.3 µM, first compound 0.00316 µM
[14] = second compound 0.3 µM, first compound 0.01 µM
[15] = second compound 0.3 µM, first compound 0.0316 µM
[16] = second compound 0.3 µM, first compound 0.1 µM
[17] = second compound 0.3 µM, first compound 0.316 µM
[18] = second compound 0.3 µM, first compound 1 µM
[19] = second compound 0.949 µM, first compound 0.00316 µM
[20] = second compound 0.949 µM, first compound 0.01 µM
[21] = second compound 0.949 µM, first compound 0.0316 µM
[22] = second compound 0.949 µM, first compound 0.1 µM
[23] = second compound 0.949 µM, first compound 0.316 µM
[24] = second compound 0.949 µM, first compound 1 µM
[25] = second compound 3 µM, first compound 0.00316 µM
[26] = second compound 3 µM, first compound 0.01 µM
[27] = second compound 3 µM, first compound 0.0316 µM
[28] = second compound 3 µM, first compound 0.1 µM
[29] = second compound 3 µM, first compound 0.316 µM
[30] = second compound 3 µM, first compound 1 µM

| SMILES | IC50 (second compound 0.03 µM) [nM] | IC50 (second compound 0.0949 µM) [nM] | IC50 (second compound 0.3 µM) [nM] | IC50 (second compound 0.949 µM) [nM] | IC50 (second compound 3 µM) [nM] | viability, T/C [1] [%] | viability, T/C [2] [%] | viability, T/C [3] [%] | viability, T/C [4] [%] | viability, T/C [5] [%] | viability, T/C [6] [%] | viability, T/C [7] [%] | viability, T/C [8] [%] | viability, T/C [9] [%] | viability, T/C [10] [%] | viability, T/C [11] [%] | viability, T/C [12] [%] | viability, T/C [13] [%] | viability, T/C [14] [%] | viability, T/C [15] [%] | other results |
| --- | --- | --- | --- | --- | --- | --- | --- | --- | --- | --- | --- | --- | --- | --- | --- | --- | --- | --- | --- | --- | --- |
| CCN1CCN(Cc2ccc(Nc3ncc(F)c(-c4cc(F)c5nc(C)n(C(C)C)c5c4)n3)nc2)CC1 + CCN1C(C(=O)NC23CCC(C(=O)O)(CC2)CC3)C(c2cccc(Cl)c2F)C2(C(=O)Nc3cc(Cl)ccc32)C12CCCCC2 | > 1000 | > 1000 | > 1000 | > 1000 | > 1000 | 99.9 | 99.8 | 96.1 | 99.8 | 116 | 124 | 113 | 112 | 99.4 | 106 | 115 | 131 | 107 | 128 | 117 | viability, T/C [16]: 114%; viability, T/C [17]: 117%; viability, T/C [18]: 140%; viability, T/C [19]: 127%; viability, T/C [20]: 111%; viability, T/C [21]: 123%; viability, T/C [22]: 113%; viability, T/C [23]: 120%; viability, T/C [24]: 142%; viability, T/C [25]: 129%; viability, T/C [26]: 123%; viability, T/C [27]: 114%; viability, T/C [28]: 109%; viability, T/C [29]: 119%; viability, T/C [30]: 139% |
| O=C(c1ccc(F)c(F)c1Nc1ccc(I)cc1F)N1CC(O)([C@@H]2CCCCN2)C1 + CCN1C(C(=O)NC23CCC(C(=O)O)(CC2)CC3)C(c2cccc(Cl)c2F)C2(C(=O)Nc3cc(Cl)ccc32)C12CCCCC2 | > 1000 | > 1000 | > 1000 | > 1000 | > 1000 | 107 | 110 | 101 | 111 | 123 | 157 | 105 | 121 | 108 | 112 | 127 | 131 | 104 | 114 | 123 | viability, T/C [16]: 115%; viability, T/C [17]: 125%; viability, T/C [18]: 122%; viability, T/C [19]: 115%; viability, T/C [20]: 120%; viability, T/C [21]: 125%; viability, T/C [22]: 120%; viability, T/C [23]: 145%; viability, T/C [24]: 144%; viability, T/C [25]: 124%; viability, T/C [26]: 123%; viability, T/C [27]: 126%; viability, T/C [28]: 121%; viability, T/C [29]: 136%; viability, T/C [30]: 154% |
